Results as given in US12036022B2, “Transcutaneous organ function measurement” (MediBeacon Inc., priority 2008, dated 2024).

Test: Half-life (renal excretion) after intravenous administration to rats
Settings: rat, in vivo
Method: The chromatographically separated fractions F5 and F10 were derivatized with fluorescein isothiocyanate (FITC) to form FITC-F5 and FITC-F10. FITC-F10 was administered to rats intravenously. The interstitial fluorescence of the FITC measured at an excitation wavelength of 485-520 nm was determined. The fluorescence in the serum was measured as a control.

Substance: sinistrin
- half-life: 25.02 ± 1.67 min
